Measured values taken from article PMC11882969 (Nature Communications, 2025).
“And” between values parts separate entries of the source, which are not always exact repeats. Equal entries are not always repeated.

Key:
[1] = molecular target: hCB1 (Homo sapiens, UniProt P21554); experiment: bioSensAll ebBRET signaling profiling, hCB1; format: cell-based; parameters: host or cells: HEK293SL cells, transient PEI transfection; details: for Gi1 hCB1 response: Gi1 biosensor; for Gi1 hCB1 / GoB hCB1: single replicate values, FigS6a
Chain of hCB1 (P21554 whole entry): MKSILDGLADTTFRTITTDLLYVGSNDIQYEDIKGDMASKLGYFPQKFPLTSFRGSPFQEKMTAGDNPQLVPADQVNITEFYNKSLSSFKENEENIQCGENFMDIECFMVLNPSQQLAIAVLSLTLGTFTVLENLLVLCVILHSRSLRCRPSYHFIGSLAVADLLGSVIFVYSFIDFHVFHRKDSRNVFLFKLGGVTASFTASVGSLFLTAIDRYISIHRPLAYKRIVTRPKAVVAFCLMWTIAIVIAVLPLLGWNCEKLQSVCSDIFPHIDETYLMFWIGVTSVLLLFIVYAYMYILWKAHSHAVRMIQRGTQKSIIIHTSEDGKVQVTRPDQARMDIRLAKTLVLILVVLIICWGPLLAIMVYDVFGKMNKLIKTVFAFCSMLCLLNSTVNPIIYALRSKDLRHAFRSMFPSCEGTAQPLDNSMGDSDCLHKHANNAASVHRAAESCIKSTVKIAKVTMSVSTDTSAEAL

[2] = molecular target: CB1 (rCB1) (Rattus norvegicus, UniProt P20272); experiment: Radioligand competition binding, [3H]-CP-55,940, rat brain membranes
Chain of CB1 (rCB1) (P20272 whole entry): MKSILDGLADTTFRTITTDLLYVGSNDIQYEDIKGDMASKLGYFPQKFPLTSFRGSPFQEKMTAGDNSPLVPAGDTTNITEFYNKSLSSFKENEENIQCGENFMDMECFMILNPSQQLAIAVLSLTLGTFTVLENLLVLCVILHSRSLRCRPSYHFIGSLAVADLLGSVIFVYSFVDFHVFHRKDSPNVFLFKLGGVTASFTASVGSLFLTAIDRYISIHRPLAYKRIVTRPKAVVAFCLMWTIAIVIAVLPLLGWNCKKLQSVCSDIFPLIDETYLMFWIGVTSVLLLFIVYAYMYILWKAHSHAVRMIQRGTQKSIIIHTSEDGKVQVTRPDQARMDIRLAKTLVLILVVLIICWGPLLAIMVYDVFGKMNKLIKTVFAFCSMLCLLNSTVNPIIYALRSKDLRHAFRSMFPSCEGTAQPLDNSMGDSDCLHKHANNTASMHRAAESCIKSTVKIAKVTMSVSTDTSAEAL

In the case of `Cc1cc(C(=O)N(C)C(c2ccco2)c2ccco2)nn1-c1cccc(C(F)(F)F)c1` [‘4388], the “Gi1 hCB1 response” value ([1]; Log [Compound] (M) -4.22186) is reported as -4.018, the “Gi1 hCB1 response” value ([1]; Log [Compound] (M) -4.63927) is reported as -19.2595 and the “Gi1 hCB1 response” value ([1]; Log [Compound] (M) -5.05788) is reported as -23.1763. The “Gi1 hCB1 response” value ([1]; Log [Compound] (M) -5.47381) was 10.5525, the “Gi1 hCB1 response” value ([1]; Log [Compound] (M) -5.89285) was -11.6498 and the “Gi1 hCB1 response” value ([1]; Log [Compound] (M) -6.31878) was -15.6337. For the same compound, the “Gi1 hCB1 response” value ([1]; Log [Compound] (M) -6.72585) was 2.07, the “Gi1 hCB1 response” value ([1]; Log [Compound] (M) -7.14267) was 5.942 and the “Gi1 hCB1 response” value ([1]; Log [Compound] (M) -7.55284) was 4.107. For the same compound, the “Gi1 hCB1 response” value ([1]; Log [Compound] (M) -8) was 5.7853, the “Gi1 hCB1 response” value ([1]; Log [Compound] (M) -8.22186) was 57.4864 and the “Gi1 hCB1 response” value ([1]; Log [Compound] (M) -8.39794) was -7.509. The “Gi1 hCB1 response” value ([1]; Log [Compound] (M) -8.68787) was 16.0808, the “Gi1 hCB1 response” value ([1]; Log [Compound] (M) -9.15521) was -3.346 and the “Gi1 hCB1 response” value ([1]; Log [Compound] (M) -9.61989) was -13.3061. For the same compound, the “Gi1 hCB1 response” value ([1]; Log [Compound] (M) -10.0969) was -9.456, the “Gi1 hCB1 response” value ([1]; Log [Compound] (M) -10.5529) was 6.658 and the “Gi1 hCB1 response” value ([1]; Log [Compound] (M) -11.0177) was 9.836. The “Gi1 hCB1 response” value ([1]; Log [Compound] (M) -11.4949) was 13.8426, the “Gi1 hCB1 response” value ([1]; Log [Compound] (M) -11.9208) was 7.912 and the “Gi1 hCB1 response” value ([1]; Log [Compound] (M) -12.3979) was 17.8713. For the same compound, the “Gi1 hCB1 response” value ([1]; Log [Compound] (M) -12.8861) was 0.7271, the “Gi1 hCB1 response” value ([1]; Log [Compound] (M) -13, individual replicate values) was -6.01 and 6.502 and the “Gi1 hCB1” value ([1]; Log [Compound] (M) -4.22186) was -1.453. For the same compound, the “GoB hCB1” value ([1]; Log [Compound] (M) -4.22186) was -21.3927, the “Gi1 hCB1” value ([1]; Log [Compound] (M) -4.63927) was -2.47 and the “GoB hCB1” value ([1]; Log [Compound] (M) -4.63927) was -23.227. For the same compound, the “Gi1 hCB1” value ([1]; Log [Compound] (M) -5.05788) was -11.3501, the “GoB hCB1” value ([1]; Log [Compound] (M) -5.05788) was -26.2122 and the “Gi1 hCB1” value ([1]; Log [Compound] (M) -5.47381) was -11.1959. For the same compound, the “GoB hCB1” value ([1]; Log [Compound] (M) -5.47381) was -26.6258, the “Gi1 hCB1” value ([1]; Log [Compound] (M) -5.89285) was -9.5 and the “GoB hCB1” value ([1]; Log [Compound] (M) -5.89285) was -20.8711. The “Gi1 hCB1” value ([1]; Log [Compound] (M) -6.31878) was -8.93, the “GoB hCB1” value ([1]; Log [Compound] (M) -6.31878) was -17.76 and the “Gi1 hCB1” value ([1]; Log [Compound] (M) -6.72585) was -4.983. The “GoB hCB1” value ([1]; Log [Compound] (M) -6.72585) was -9.883, the “Gi1 hCB1” value ([1]; Log [Compound] (M) -7.14267) was 0.7674 and the “GoB hCB1” value ([1]; Log [Compound] (M) -7.14267) was -5.046. The “Gi1 hCB1” value ([1]; Log [Compound] (M) -7.55284) was 2.355, the “GoB hCB1” value ([1]; Log [Compound] (M) -7.55284) was 0.4032 and the “Gi1 hCB1” value ([1]; Log [Compound] (M) -8) was 1.985. The “GoB hCB1” value ([1]; Log [Compound] (M) -8) was -1.107, the “Gi1 hCB1” value ([1]; Log [Compound] (M) -8.22186) was 1.292 and the “GoB hCB1” value ([1]; Log [Compound] (M) -8.22186) was -1.989. The “Gi1 hCB1” value ([1]; Log [Compound] (M) -8.39794) was 1.677, the “GoB hCB1” value ([1]; Log [Compound] (M) -8.39794) was 0.9427 and the “Gi1 hCB1” value ([1]; Log [Compound] (M) -8.68787) was 1.23. For the same compound, the “GoB hCB1” value ([1]; Log [Compound] (M) -8.68787) was -0.8377, the “Gi1 hCB1” value ([1]; Log [Compound] (M) -9.15521) was 0.9215 and the “GoB hCB1” value ([1]; Log [Compound] (M) -9.15521) was -0.8737. The “Gi1 hCB1” value ([1]; Log [Compound] (M) -9.61989) was 0.08902, the “GoB hCB1” value ([1]; Log [Compound] (M) -9.61989) was -0.7118 and the “Gi1 hCB1” value ([1]; Log [Compound] (M) -10.0969) was 1.816. The “GoB hCB1” value ([1]; Log [Compound] (M) -10.0969) was -0.7298, the “Gi1 hCB1” value ([1]; Log [Compound] (M) -10.5529) was 1.122 and the “GoB hCB1” value ([1]; Log [Compound] (M) -10.5529) was -2.258. The “Gi1 hCB1” value ([1]; Log [Compound] (M) -11.0177) was 1.6, the “GoB hCB1” value ([1]; Log [Compound] (M) -11.0177) was 0.6549 and the “Gi1 hCB1” value ([1]; Log [Compound] (M) -11.4949) was 2.232. For the same compound, the “GoB hCB1” value ([1]; Log [Compound] (M) -11.4949) was -1.305, the “Gi1 hCB1” value ([1]; Log [Compound] (M) -11.9208) was 2.186 and the “GoB hCB1” value ([1]; Log [Compound] (M) -11.9208) was -1.089. The “Gi1 hCB1” value ([1]; Log [Compound] (M) -12.3979) was 1.137, the “GoB hCB1” value ([1]; Log [Compound] (M) -12.3979) was -1.305 and the “Gi1 hCB1” value ([1]; Log [Compound] (M) -12.8861) was 1.415. The “GoB hCB1” value ([1]; Log [Compound] (M) -12.8861) was -0.9816, the “Gi1 hCB1” value ([1]; Log [Compound] (M) -13) was 2.1086 and 2.987 and the “GoB hCB1” value ([1]; Log [Compound] (M) -13) was 0.8707 and 0.2953. The “pKi [95% CI]” value ([2]; rCB1) was 5.9 [5.7 – 6.0] and the Ki ([2]; read-out: Ki [95% CI], rCB1, [3H]-CP-55,940) was 1360 nM.
